Columns and labels:
[1] = target: PI3K-δ (PI3K(p1108/p857) (h)) (Homo sapiens, UniProt O00329); test: Evaluation of inhibitory activity against PI3K-δ (HTRF kinase assay); format: biochemical; conditions: for inhibition at 0.01 µM: compound concentration 0.01 μM, read-out: EXP_VALUE(% Inhibition) PI3K-δ 0.01 μM; for inhibition at 0.1 µM: compound concentration 0.1 μM, read-out: EXP_VALUE(% Inhibition) PI3K-δ 0.1 μM
Outline: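 HTRF read-out (665/620 nm ratio ×10000) used Eu-labelled anti-GST, GST-tagged GRP1 PH domain and streptavidin-allophycocyanin after EDTA/PIP3 stop.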

DNA-PK(h) = DNA-PK(h) (Homo sapiens, UniProt P78527); test: Evaluation of inhibitory activity against DNA-PK (HTRF kinase assay, GST-cMyc-p53 substrate); format: biochemical; conditions: for inhibition at 0.01 µM: compound concentration 0.01 μM, read-out: EXP_VALUE(% Inhibition) DNA-PK(h) 0.01 μM; for inhibition at 0.1 µM: compound concentration 0.1 μM, read-out: EXP_VALUE(% Inhibition) DNA-PK(h) 0.1 μM
Outline: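 p53 Ser15 phosphorylation by human DNA-PK was measured by time-resolved FRET ratio (665/620 nm ×10000) using Eu-labelled anti-phospho-Ser15 and d2 anti-GST antibodies. Substrate GST-cMyc-p53 at 50 μM; Mg/ATP-initiated, 30 min at room temperature, EDTA stop.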

Sequence of PI3K-δ (PI3K(p1108/p857) (h)) (O00329 whole entry, the tested form may be a part): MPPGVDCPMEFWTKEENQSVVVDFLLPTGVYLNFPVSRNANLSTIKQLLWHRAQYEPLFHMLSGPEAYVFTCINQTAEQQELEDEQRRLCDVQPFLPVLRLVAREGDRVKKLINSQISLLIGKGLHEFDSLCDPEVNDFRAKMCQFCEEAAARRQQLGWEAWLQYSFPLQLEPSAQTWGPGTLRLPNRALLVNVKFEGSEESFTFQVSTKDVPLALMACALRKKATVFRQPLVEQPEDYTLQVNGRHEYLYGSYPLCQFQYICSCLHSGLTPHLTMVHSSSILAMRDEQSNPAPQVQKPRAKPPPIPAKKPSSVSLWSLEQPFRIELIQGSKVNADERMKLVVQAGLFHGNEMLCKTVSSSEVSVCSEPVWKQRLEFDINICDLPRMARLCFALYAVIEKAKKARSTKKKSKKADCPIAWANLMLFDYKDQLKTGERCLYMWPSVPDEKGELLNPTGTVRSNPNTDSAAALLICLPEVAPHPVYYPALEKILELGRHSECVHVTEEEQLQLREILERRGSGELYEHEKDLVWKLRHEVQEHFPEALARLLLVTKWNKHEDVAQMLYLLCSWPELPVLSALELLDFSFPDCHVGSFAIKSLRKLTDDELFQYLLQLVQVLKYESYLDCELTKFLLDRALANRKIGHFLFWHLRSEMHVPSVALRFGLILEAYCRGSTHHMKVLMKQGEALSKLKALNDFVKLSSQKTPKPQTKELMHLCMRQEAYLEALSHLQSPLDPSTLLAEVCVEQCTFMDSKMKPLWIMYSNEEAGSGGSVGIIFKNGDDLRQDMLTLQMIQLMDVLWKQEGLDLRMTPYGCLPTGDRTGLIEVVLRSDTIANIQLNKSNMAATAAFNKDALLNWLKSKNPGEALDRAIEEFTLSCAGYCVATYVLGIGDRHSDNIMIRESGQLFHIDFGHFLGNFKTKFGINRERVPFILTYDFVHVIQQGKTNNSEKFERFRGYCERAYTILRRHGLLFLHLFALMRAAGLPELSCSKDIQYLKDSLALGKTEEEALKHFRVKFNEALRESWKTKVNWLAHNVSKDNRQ
Sequence of PI3K-δ (PI3K(p1108/p857) (h)) (P27986 whole entry partner, the tested form may be a part): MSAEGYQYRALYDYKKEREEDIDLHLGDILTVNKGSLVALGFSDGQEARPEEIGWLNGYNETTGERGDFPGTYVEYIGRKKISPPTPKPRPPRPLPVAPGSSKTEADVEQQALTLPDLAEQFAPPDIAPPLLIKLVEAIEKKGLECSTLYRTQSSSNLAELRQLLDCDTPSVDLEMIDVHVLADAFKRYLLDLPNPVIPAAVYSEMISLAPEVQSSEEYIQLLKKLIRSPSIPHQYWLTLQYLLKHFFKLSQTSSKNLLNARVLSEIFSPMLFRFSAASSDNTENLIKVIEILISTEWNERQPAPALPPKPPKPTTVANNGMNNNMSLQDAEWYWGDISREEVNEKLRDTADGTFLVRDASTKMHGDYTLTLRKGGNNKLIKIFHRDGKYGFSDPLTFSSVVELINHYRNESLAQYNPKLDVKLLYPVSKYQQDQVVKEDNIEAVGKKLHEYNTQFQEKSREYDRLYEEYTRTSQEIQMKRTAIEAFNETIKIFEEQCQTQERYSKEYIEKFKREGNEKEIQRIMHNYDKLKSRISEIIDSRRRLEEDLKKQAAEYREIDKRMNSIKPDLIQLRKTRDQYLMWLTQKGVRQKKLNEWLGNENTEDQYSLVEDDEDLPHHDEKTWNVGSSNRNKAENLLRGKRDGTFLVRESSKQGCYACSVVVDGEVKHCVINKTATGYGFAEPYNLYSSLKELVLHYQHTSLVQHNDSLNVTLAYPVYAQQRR

| SMILES | inhibition at 0.01 µM [1] [%] | inhibition at 0.01 µM (DNA-PK(h)) [%] | inhibition at 0.1 µM [1] [%] | inhibition at 0.1 µM (DNA-PK(h)) [%] |
| --- | --- | --- | --- | --- |
| COc1ccc(Nc2cccc3c(Cl)c([C@H](C)Nc4ncnc5[nH]ccc(=O)c45)n(-c4ccccc4)c(=O)c23)cc1 [Example 345, (S)-4-((1-(4-chloro-8-((4-methoxyphenyl)amino)-1-oxo-2-phenyl-1,2-dihydroisoquinolin-3-yl)ethyl)amino)pyrido[2,3-d]pyrimidin-5(8H)-one] | 10 | 0 |  |  |
| C[C@H](Nc1ncnc2[nH]ccc(=O)c12)c1c(Cl)c2cccc(Nc3ccc(C(F)(F)F)cc3)c2c(=O)n1-c1ccccc1 [Example 346, (S)-4-((1-(4-chloro-1-oxo-2-phenyl-8-((4-(trifluoromethyl)phenyl)amino)-1,2-dihydroisoquinolin-3-yl)ethyl)amino)pyrido[2,3-d]pyrimidin-5(8H)-one] | 9 | 1 |  |  |
| C[C@H](Nc1ncnc2[nH]ccc(=O)c12)c1c(Cl)c2cccc(Nc3cccnc3)c2c(=O)n1-c1ccccc1 [Example 347, (S)-4-((1-(4-chloro-1-oxo-2-phenyl-8-(pyridin-3-ylamino)-1,2-dihydroisoquinolin-3-yl)ethyl)amino)pyrido[2,3-d]pyrimidin-5(8H)-one] | 11 | 28 |  |  |
| C[C@H](Nc1ncnc2[nH]ccc(=O)c12)c1c(Cl)c2cccc(Nc3ccccn3)c2c(=O)n1-c1ccccc1 [Example 348, (S)-4-((1-(4-chloro-1-oxo-2-phenyl-8-(pyridin-2-ylamino)-1,2-dihydroisoquinolin-3-yl)ethyl)amino)pyrido[2,3-d]pyrimidin-5(8H)-one] | 5 | -1 |  |  |
| C[C@H](Nc1ncnc2[nH]ccc(=O)c12)c1c(Cl)c2cccc(N(C)c3ccccn3)c2c(=O)n1-c1ccccc1 [Example 349, (S)-4-((1-(4-chloro-8-(methyl(pyridin-2-yl)amino)-1-oxo-2-phenyl-1,2-dihydroisoquinolin-3-yl)ethyl)amino)pyrido[2,3-d]pyrimidin-5(8H)-one] | 72 | 15 |  |  |
| C[C@H](Nc1ncnc2[nH]ccc(=O)c12)c1c(Cl)c2cccc(-c3ncon3)c2c(=O)n1-c1ccccc1 [Example 351, (S)-4-((1-(4-chloro-8-(1,2,4-oxadiazol-3-yl)-1-oxo-2-phenyl-1,2-dihydroisoquinolin-3-yl)ethyl)amino)pyrido[2,3-d]pyrimidin-5(8H)-one] | 50 | 45 | 91 | 89 |
| C[C@H](Nc1ncnc2[nH]ccc(=O)c12)c1c(Cl)c2cccc(C3NCCS3)c2c(=O)n1-c1ccccc1 (stereo partly drawn) [Example 356, 4-(((1S)-1-(4-chloro-1-oxo-2-phenyl-8-(thiazolidin-2-yl)-1,2-dihydroisoquinolin-3-yl)ethyl)amino)pyrido[2,3-d]pyrimidin-5(8H)-one] | 62 | 34 |  |  |
| C[C@H](Nc1ncnc2[nH]ccc(=O)c12)c1c(Cl)c2cccc(C3OCC(C)(C)CO3)c2c(=O)n1-c1ccccc1 [Example 358, (S)-4-((1-(4-chloro-8-(5,5-dimethyl-1,3-dioxan-2-yl)-1-oxo-2-phenyl-1,2-dihydroisoquinolin-3-yl)ethyl)amino)pyrido[2,3-d]pyrimidin-5(8H)-one] | 37 | -1 |  |  |
| C[C@H](Nc1ncnc2[nH]ccc(=O)c12)c1c(Cl)c2cccc(COCC(C)(C)CO)c2c(=O)n1-c1ccccc1 [Example 359, (S)-4-((1-(4-chloro-8-((3-hydroxy-2,2-dimethylpropoxy)methyl)-1-oxo-2-phenyl-1,2-dihydroisoquinolin-3-yl)ethyl)amino)pyrido[2,3-d]pyrimidin-5(8H)-one] | 46 | 8 |  |  |
| C[C@H](Nc1ncnc2[nH]ccc(=O)c12)c1c(Cl)c2cccc(OCc3ccccc3)c2c(=O)n1-c1ccccc1 [Example 362, (S)-4-((1-(8-(benzyloxy)-4-chloro-1-oxo-2-phenyl-1,2-dihydroisoquinolin-3-yl)ethyl)amino)pyrido[2,3-d]pyrimidin-5(8H)-one] | 21 | 29 | 64 | 67 |
| COc1ccccc1Oc1cccc2c(Cl)c([C@H](C)Nc3ncnc4[nH]ccc(=O)c34)n(-c3ccccc3)c(=O)c12 [Example 366, (S)-4-((1-(4-chloro-8-(2-methoxyphenoxy)-1-oxo-2-phenyl-1,2-dihydroisoquinolin-3-yl)ethyl)amino)pyrido[2,3-d]pyrimidin-5(8H)-one] | 41 | 23 | 85 | 69 |

Continued, values first:

| inhibition at 0.01 µM [1] [%] | inhibition at 0.01 µM (DNA-PK(h)) [%] | inhibition at 0.1 µM [1] [%] | inhibition at 0.1 µM (DNA-PK(h)) [%] | SMILES |
| --- | --- | --- | --- | --- |
| 109 | 15 | 117 | 55 | C[C@H](Nc1ncnc2[nH]ccc(=O)c12)c1c(Cl)c2cccc(/C(N)=N/O)c2c(=O)n1-c1ccccc1 [Example 350, (S,Z)-4-chloro-N′-hydroxy-1-oxo-3-(1-((5-oxo-5,8-dihydropyrido[2,3-d]pyrimidin-4-yl)amino)ethyl)-2-phenyl-1,2-dihydroisoquinoline-8-carboximidamide] |
| 27 | 34 | 75 | 76 | C[C@H](Nc1ncnc2[nH]ccc(=O)c12)c1c(Cl)c2cccc(-c3nnn[nH]3)c2c(=O)n1-c1ccccc1 [Example 352, (S)-4-((1-(4-chloro-1-oxo-2-phenyl-8-(1H-tetrazol-5-yl)-1,2-dihydroisoquinolin-3-yl)ethyl)amino)pyrido[2,3-d]pyrimidin-5(8H)-one] |
| 84 | 19 | 94 | 62 | C[C@H](Nc1ncnc2[nH]ccc(=O)c12)c1c(Cl)c2cccc(B(O)O)c2c(=O)n1-c1ccccc1 [Example 353, (S)-(4-chloro-1-oxo-3-(1-((5-oxo-5,8-dihydropyrido[2,3-d]pyrimidin-4-yl)amino)ethyl)-2-phenyl-1,2-dihydroisoquinolin-8-yl)boronic acid] |
| 95 | 63 | 106 | 94 | CCc1cccc2c(Cl)c([C@H](C)Nc3ncnc4[nH]ccc(=O)c34)n(-c3ccccc3)c(=O)c12 [Example 354, (S)-4-((1-(4-chloro-8-ethyl-1-oxo-2-phenyl-1,2-dihydroisoquinolin-3-yl)ethyl)amino)pyrido[2,3-d]pyrimidin-5(8H)-one] |
| 78 | 47 |  |  | C[C@H](Nc1ncnc2[nH]ccc(=O)c12)c1c(Cl)c2cccc(CO)c2c(=O)n1-c1ccccc1 [Example 355, (S)-4-((1-(4-chloro-8-(hydroxymethyl)-1-oxo-2-phenyl-1,2-dihydroisoquinolin-3-yl)ethyl)amino)pyrido[2,3-d]pyrimidin-5(8H)-one] |
| 11 | 15 |  |  | C[C@H](Nc1ncnc2[nH]ccc(=O)c12)c1c(Cl)c2cccc(C(O)C(C)(C)C)c2c(=O)n1-c1ccccc1 (stereo partly drawn) [Example 357, 4-(((1S)-1-(4-chloro-8-(1-hydroxy-2,2-dimethylpropyl)-1-oxo-2-phenyl-1,2-dihydroisoquinolin-3-yl)ethyl)amino)pyrido[2,3-d]pyrimidin-5(8H)-one] |
| 6 | -4 |  |  | C[C@H](Nc1ncnc2[nH]ccc(=O)c12)c1c(Cl)c2cccc(C(C)(C)O)c2c(=O)n1-c1ccccc1 [Example 360, (S)-4-((1-(4-chloro-8-(2-hydroxypropan-2-yl)-1-oxo-2-phenyl-1,2-dihydroisoquinolin-3-yl)ethyl)amino)pyrido[2,3-d]pyrimidin-5(8H)-one] |
| 56 | 48 |  |  | C[C@H](Nc1ncnc2[nH]ccc(=O)c12)c1c(Cl)c2cccc([C@@H](C)O)c2c(=O)n1-c1ccccc1 [Example 361, 4-(((S)-1-(4-chloro-8-((R)-1-hydroxyethyl)-1-oxo-2-phenyl-1,2-dihydroisoquinolin-3-yl)ethyl)amino)pyrido[2,3-d]pyrimidin-5(8H)-one] |
| 26 | 35 | 76 | 80 | COCCOc1cccc2c(Cl)c([C@H](C)Nc3ncnc4[nH]ccc(=O)c34)n(-c3ccccc3)c(=O)c12 [Example 363, (S)-4-((1-(4-chloro-8-(2-methoxyethoxy)-1-oxo-2-phenyl-1,2-dihydroisoquinolin-3-yl)ethyl)amino)pyrido[2,3-d]pyrimidin-5(8H)-one] |
| 29 | 21 | 76 | 82 | C[C@H](Nc1ncnc2[nH]ccc(=O)c12)c1c(Cl)c2cccc(OCC(F)(F)F)c2c(=O)n1-c1ccccc1 [Example 364, (S)-4-((1-(4-chloro-1-oxo-2-phenyl-8-(2,2,2-trifluoroethoxy)-1,2-dihydroisoquinolin-3-yl)ethyl)amino)pyrido[2,3-d]pyrimidin-5(8H)-one] |
| 31 | 28 | 84 | 65 | COc1cccc2c(Cl)c([C@H](C)Nc3ncnc4[nH]ccc(=O)c34)n(-c3ccccc3)c(=O)c12 [Example 365, (S)-4-((1-(4-chloro-8-methoxy-1-oxo-2-phenyl-1,2-dihydroisoquinolin-3-yl)ethyl)amino)pyrido[2,3-d]pyrimidin-5(8H)-one] |

Reference: patent publication US20230072683A1, “PYRIDO-PYRIMIDIN DERIVATIVES AND PHARMACEUTICAL COMPOSITION, FOR USE IN PREVENTING OR TREATING PI3 KINASE RELATED DISEASES, COMPRISING SAME AS ACTIVE INGREDIENT” (BORYUNG PHARMACEUTICAL CO., LTD, priority 2019, published 2023)
